Laboratory results published in patent publication EP2605769B1, “BENZOQUINONE DERIVATIVES FOR THE TREATMENT OF MITCHONDRIAL EYE DISEASES” (Santhera Pharmaceuticals (Schweiz) AG, priority 2010, dated 2012).

System: C57BL/6J mice
Assay: Mouse model of intravitreal rotenone injection, histopathology, second study with modified less invasive injection method
Type: in vivo
Excerpt: This mouse model is used to assess the therapeutic potential of compounds in eye disorders characterized by mitochondrial dysfunction such as LHON, DOA, macular degeneration, retinopathy, and complex I deficiency. It is a widely accepted in vivo model based on single-eye intravitreal injection of the mitochondrial complex I inhibitor rotenone in the adult mouse. Intravitreal injection of rotenone induces neurotoxicity through mitochondrial complex I dysfunction in the retina which is the main molecular dysfunction […]. […] Histological analysis includes quantitative measurement of the retinal thickness (whole retina and individual layers), RGC apoptosis and cell death, oxidative stress, glutamine synthetase expression, and gliosis. The non-injected eye is used as a within subject, i.e. intraindividual, control. Male wild-type C57BL/6J mice (7 weeks old, about 25 g body weight) are individually housed in Makrolon type II cages with standard bedding and free access to food and water under a regular 12-hours light-dark cycle (8 a.m. to 8 p.m.). […] The injection is performed over a period of 2 min and the needle is kept in place for an additional 3 min, after which it is gently removed. Sterile surgical glue (Histoacryl, BRAUN/Aesculap AG, Germany) is used to seal the site of injection and a sterile antimicrobial ophtalmic ointment (Neosporin, GlaxoSmithKline, UK) is applied to the injected eye to avoid any infection. […] The eye balls are removed, retinas are dissected, fixed for an additional 2 h at 4°C, incubated in PB 0.1 M and 30% sucrose overnight, frozen in optimal cutting temperature compound (O.C.T., Tissue-Tek, Miles Laboratories, Elkhart, IN, USA), sliced at 14 μm, and collected onto glass slides for immunostaining. Immunostaining is performed accordingly to conventional method using multiple primary antibodies. Fluorescent-conjugated secondary antibodies and DAPI are used for visualization under a fluorescence microscope. All procedures are performed in accordance with the Swiss regulation and under a license approved by the "Kantonales Veterinäramt Basel-Land". […] A modified, less invasive injection method was used to further minimize damage caused by the injection itself. […] At 400 mg/kg Compound IA, a clear significant protection was observed (269 μm; p = 0.03), whereas at 2000 mg/kg a strong protective trend was detected (258 μm; p = 0.06). […] Table 6 In Table 6, the histological data on 7 days post-injection is expressed as % of sham (DMSO) injected control ± SEM. […] The term IA 200 defines a treatment with Compound IA at a concentration of 200 mg/kg; […], IA 400 and IA 2000: define a treatment with Compound IA at 400 mg/kg and at 2000 mg/kg, respectively. Statistical significance relative to vehicle + rotenone group is expressed as p ≤ 0.05 (*). n designates the number of retinas per group.

[1] = 200 mg/kg + rotenone, 7 days post-injection, ± SEM
[2] = 400 mg/kg + rotenone, 7 days post-injection, ± SEM
[3] = 2000 mg/kg + rotenone, 7 days post-injection, ± SEM

COC1=C(OC)C(=O)C(CCCCCCCCCCO)=C(C)C1=O [Compound IA, Idebenone]
Gliosis [1]: 124.46 ± 7.37 * (n=7) % of sham (DMSO) injected control
RGC number [1]: 62.53 ± 9.13 (n=7) % of sham (DMSO) injected control
Retinal thickness [1]: 91.17 ± 5.72 (n=8) % of sham (DMSO) injected control
Retinal thickness (200 mg/kg, 7 days after rotenone-injection, sham about 300 µm, rotenone 220 µm): 272 µm
Gliosis [2]: 125.04 ±9.12 * (n=6) % of sham (DMSO) injected control
RGC number [2]: 63.68 ± 5.98 * (n=6) % of sham (DMSO) injected control
Retinal thickness [2]: 89.93 ± 2.16 * (n=6) % of sham (DMSO) injected control
Retinal thickness (400 mg/kg, 7 days after rotenone-injection, sham about 300 µm, rotenone 220 µm): 269 µm
Gliosis [3]: 129.86 ± 7.32 * (n=7) % of sham (DMSO) injected control
RGC number [3]: 64.44 ± 4.56 * (n=8) % of sham (DMSO) injected control
Retinal thickness [3]: 86.58 ± 2.51 (n=8) % of sham (DMSO) injected control
Retinal thickness (2000 mg/kg, 7 days after rotenone-injection, sham about 300 µm, rotenone 220 µm): 258 µm
